Molecules are shown by their SMILES. Like-named read-outs stand apart in the source and are kept apart here.

This is an account of results in US5281717A, “Epoxysuccinamic acid derivatives” (Taisho Pharmaceutical Co., Ltd., priority 1990, dated 1994).

Type in all cases: biochemical
One test has as its target T1, μ CANP (Calpain I) (Homo sapiens, UniProt P07384).
T1 construct: purchased Nacalai Tesque Inc
T1 sequence (P07384 2-714 limits assumed): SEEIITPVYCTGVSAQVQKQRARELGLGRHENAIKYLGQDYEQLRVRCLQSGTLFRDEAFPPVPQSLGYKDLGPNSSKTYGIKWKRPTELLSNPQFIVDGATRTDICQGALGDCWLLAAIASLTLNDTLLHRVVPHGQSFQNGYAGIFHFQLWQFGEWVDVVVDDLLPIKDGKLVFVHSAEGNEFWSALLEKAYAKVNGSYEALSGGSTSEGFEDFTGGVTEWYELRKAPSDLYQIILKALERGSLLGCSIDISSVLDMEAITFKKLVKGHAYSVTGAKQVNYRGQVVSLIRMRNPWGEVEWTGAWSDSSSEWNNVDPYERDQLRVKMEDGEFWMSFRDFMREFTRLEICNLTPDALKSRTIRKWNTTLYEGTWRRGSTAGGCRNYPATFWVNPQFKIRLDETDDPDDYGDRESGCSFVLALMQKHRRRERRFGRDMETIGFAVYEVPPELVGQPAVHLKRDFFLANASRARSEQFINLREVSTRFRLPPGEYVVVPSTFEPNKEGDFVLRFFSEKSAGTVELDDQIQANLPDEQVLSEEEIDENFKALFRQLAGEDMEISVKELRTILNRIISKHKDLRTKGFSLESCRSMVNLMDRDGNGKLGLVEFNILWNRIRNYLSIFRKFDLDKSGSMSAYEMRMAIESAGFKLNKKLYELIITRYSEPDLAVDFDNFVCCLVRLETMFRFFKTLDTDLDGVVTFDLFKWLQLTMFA
T1 sequence (P04632 1-268 partner): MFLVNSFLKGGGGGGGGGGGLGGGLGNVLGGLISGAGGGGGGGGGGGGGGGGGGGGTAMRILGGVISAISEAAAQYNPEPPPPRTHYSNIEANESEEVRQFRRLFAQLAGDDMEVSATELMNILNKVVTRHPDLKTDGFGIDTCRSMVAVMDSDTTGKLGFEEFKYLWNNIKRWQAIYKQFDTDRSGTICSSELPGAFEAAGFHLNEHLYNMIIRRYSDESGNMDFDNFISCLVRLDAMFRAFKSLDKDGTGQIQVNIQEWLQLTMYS
Briefly: Inhibitory Activity Against CANP. The following applies: pH 7.5, 30° C., preincubated 5 minutes, incubation 20 minutes, alkali-denatured casein. How it is done:
(§1) The inhibitory activities against papain, CANP and cathepsin B were measured according to the following methods, and results are shown in Table 1.
The measurement was carried out according to the method of S. Ishiura et al (J. Biochem., vol. 84, p. 225 (1978)].
Each of 0.45 ml of the reaction solutions containing 25 mM 2-mercaptoethanol, 5 mM calcium chloride, 0.1 M sodium glycerophosphate-HCl buffer (pH 7.5), 0.24% alkali-denatured casein, 1% dimethylsulfoxide and various concentrations of the test drug was preincubated accurately at 30° C. for 5 minutes, and 50 μl of a solution containing 5 μg of μ CANP (Calpain I, produced by Nacalai Tesque Inc.) was added for starting the reaction. After exact incubation at 30° C. for 20 minutes, the reaction was stopped by addition of 0.5 ml of 10% trichloroacetic acid. After being allowed to stand at room temperature for 60 minutes, the mixture was centrifuged at 3000 × g for 5 minutes, and the absorbance at 280 nm of the supernatant was determined. The remaining activity was obtained by reducing the blank value which was obtained in a similar manner to the above but adding 10% trichloroacetic acid prior to addition of μ CANP from the above value. […]

Another test addresses T2, papain (Carica papaya, UniProt P00784).
T2 construct: purchased Sigma Chemical Co
T2 sequence (P00784 134-345): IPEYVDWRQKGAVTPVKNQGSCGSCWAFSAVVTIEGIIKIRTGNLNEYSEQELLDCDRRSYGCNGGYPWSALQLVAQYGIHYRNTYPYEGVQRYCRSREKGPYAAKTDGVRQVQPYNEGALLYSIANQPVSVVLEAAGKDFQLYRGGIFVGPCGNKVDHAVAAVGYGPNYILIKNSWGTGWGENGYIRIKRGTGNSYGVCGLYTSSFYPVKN
Briefly: Inhibitory Activity Against Papain. How it is done: as §1
The measurement was carried out according to the method of A. J. Barrett et al [Biochem. J., vol. 201, p. 189 (1982)].
To each of 0.95 ml of the reaction solutions containing 2.5 mM 2-mercaptoethanol, 1 mM disodium ethylenediaminetetraacetate, 0.1 M sodium potassium phosphate buffer (pH 6.8), 0.1% Brij-35 (produced by Nacalai Tesque Inc.), 1% dimethyl sulfoxide and various concentrations of the test drug was added 25 μl of a papain solution (produced by Sigma Chemical Co.), and the mixture was preincubated at 40° C. for 3 minutes, after which 25 μl of 200 μM benzyloxycarbonyl-L-phenylalanyl-L-arginine 4-methylcoumaryl-7-amide (produced by Peptide Institute Inc.) was added for starting the reaction After incubation at 40° C. for 10 minutes, the reaction was stopped by addition of 1 ml of 100 mM sodium acetate buffer solution (pH 4.3) containing 100 mM sodium chloroacetate. The fluorescence of the liberated 7-amino-4-methylcoumarine was determined using a Shimazu fluorometer RF-5000 with excitation at 380 nm and emission measured at 440 nm. […]

A further test deals with T3, cathepsin B (Homo sapiens, UniProt P07858).
T3 construct: purchased Sigma Chemical Co
Briefly: Inhibitory Activity against Cathepsin B. The following applies: pH 6.0, 40° C., preincubated 3 minutes, incubation 10 minutes, substrate benzyloxycarbonyl-L-phenylalanyl-L-arginine 4-methylcoumaryl-7-amide.

Procedure for cathepsin B: To each of 0.95 ml of the reaction solutions containing 2.5 mM 2-mercaptoethanol, 1 mM disodium ethylenediaminetetraacetate, 0.1 M sodium potassium phosphate buffer (pH 6.0), 0.1% Brij-35 (produced by Nacalai Tesque Inc.), 1% dimethyl sulfoxide and various concentrations of the test drug was added 25 μl of 200 nM cathepsin B solution (produced by Sigma Chemical Co.), and the mixture was preincubated at 40° C. for 3 minutes, after which 25 μl of 200 μM benzyloxycarbonyl-L-phenylalanyl-L-arginine 4-methylcoumaryl-7-amide (produced by Peptide Institute Inc.) was added for starting the reaction After incubation at 40° C. for 10 minutes, the reaction was stopped by addition of 1 ml of 100 mM sodium acetate buffer (pH 4.3) containing 100 nM sodium chloroacetate. The fluorescence of the liberated 7-amino-4-methyl-coumarine was determined using a Shimazu fluorometer RP-5000 with excitation at 380 nm and emission measured at 440 nm.

Regarding `CCCCCNC(=O)[C@H]1O[C@@H]1C(=O)N[C@H](C(=O)N1CCC[C@H]1C(=O)O)[C@@H](C)CC` [Compound 8d], the results for the concentration for half-maximal inhibition (IC50) against μ CANP (Calpain I), on papain and against cathepsin B were greater than 200000 nM, 26000 nM and 32 nM, respectively.

Turning to `CCCNC(=O)[C@H]1O[C@@H]1C(=O)N[C@H](C(=O)N1CCC[C@H]1C(=O)O)[C@@H](C)CC` [Compound 1d, N-(L-3-trans-n-propylcarbamoyloxirane-2-carbonyl)-L-isoleucyl-L-proline], the half-maximal inhibitory concentration (IC50) is greater than 200000 nM at μ CANP (Calpain I) and 57400 nM on papain (pH 6.8, 40° C., preincubated 3 minutes, incubation 10 minutes, substrate benzyloxycarbonyl-L-phenylalanyl-L-arginine 4-methylcoumaryl-7-amide, read-out: Inhibitory Activity Value [IC50 (nM)] Papain).

In general, IC50 refers to the concentration at which inhibition is half-maximal.
